Results published in the NIST ThermoML archive (doi:10.1021/acs.jced.5b00752).
Where “and” joins values, the source holds several entries; their conditions need not be identical. Identical values can stand only once. ± gives the expanded uncertainty stated by the source.

Settings: Closed cell (Static) method

CCOC(=O)c1ccccc1C(=O)OCC [diethyl phthalate]
Liquid
Settings	vapor or sublimation pressure
312.21 K	0.00032 ± 0.0002 kPa and 0.00035 ± 0.0002 kPa
322.21 K	0.00105 ± 0.00023 kPa and 0.00103 ± 0.00023 kPa
332.21 K	0.00269 ± 0.00031 kPa
342.19 K	0.00623 ± 0.00048 kPa
352.18 K	0.01358 ± 0.00086 kPa
352.2 K	0.01352 ± 0.00085 kPa
362.2 K	0.02775 ± 0.0014 kPa
372.19 K	0.05429 ± 0.0025 kPa
372.2 K	0.05407 ± 0.0025 kPa
372.22 K	0.05424 ± 0.0025 kPa
382.23 K	0.1008 ± 0.0046 kPa
392.24 K	0.1821 ± 0.0076 kPa
402.37 K	0.3169 ± 0.013 kPa
412.38 K	0.5303 ± 0.022 kPa
422.49 K	0.8621 ± 0.035 kPa
442.28 K	2.082 ± 0.084 kPa
452.12 K	3.099 ± 0.12 kPa

[CH]1C=CC=C1.[CH]1C=CC=C1.[Fe] [ferrocene]
Settings	vapor or sublimation pressure
312.2 K, Crystal	0.00369 ± 0.0005 kPa
312.21 K, Crystal	0.00359 ± 0.00051 kPa
322.21 K, Crystal	0.009 ± 0.0004 kPa and 0.00911 ± 0.00041 kPa
332.2 K, Crystal	0.02078 ± 0.00063 kPa
332.21 K, Crystal	0.02086 ± 0.00064 kPa and 0.02071 ± 0.00063 kPa
342.18 K, Crystal	0.04497 ± 0.001 kPa and 0.04517 ± 0.001 kPa
352.17 K, Crystal	0.0934 ± 0.0018 kPa [middle of 4 runs]
352.18 K, Crystal	0.09249 ± 0.0017 kPa and 0.09264 ± 0.0018 kPa and 0.09328 ± 0.0018 kPa
352.19 K, Crystal	0.0936 ± 0.0018 kPa
362.17 K, Crystal	0.1851 ± 0.0025 kPa and 0.185 ± 0.0024 kPa
362.18 K, Crystal	0.1854 ± 0.0025 kPa
372.2 K, Crystal	0.3543 ± 0.0038 kPa
382.19 K, Crystal	0.6508 ± 0.0061 kPa
392.2 K, Crystal	1.158 ± 0.01 kPa
402.26 K, Crystal	2.001 ± 0.011 kPa
402.31 K, Crystal	2.008 ± 0.011 kPa
412.24 K, Crystal	3.346 ± 0.013 kPa
412.32 K, Crystal	3.361 ± 0.013 kPa
422.29 K, Crystal	5.47 ± 0.017 kPa
422.4 K, Crystal	5.502 ± 0.017 kPa
432.42 K, Crystal	8.756 ± 0.023 kPa
442.26 K, Crystal	13.53 ± 0.03 kPa
452.08 K, Liquid	19.48 ± 0.31 kPa

c1ccc2ccccc2c1 [naphthalene]
Settings	vapor or sublimation pressure
312.2 K, Crystal	0.04084 ± 0.0011 kPa and 0.04083 ± 0.0011 kPa
317.21 K, Crystal	0.06326 ± 0.0015 kPa
322.21 K, Crystal	0.09622 ± 0.002 kPa
327.21 K, Crystal	0.1447 ± 0.0025 kPa
332.21 K, Crystal	0.2153 ± 0.0032 kPa
337.21 K, Crystal	0.315 ± 0.0043 kPa and 0.3154 ± 0.0043 kPa
342.19 K, Crystal	0.4556 ± 0.0058 kPa
347.19 K, Crystal	0.651 ± 0.0079 kPa
352.19 K, Crystal	0.9213 ± 0.011 kPa
357.19 K, Liquid	1.2 ± 0.014 kPa
362.2 K, Liquid	1.521 ± 0.016 kPa
367.21 K, Liquid	1.915 ± 0.019 kPa and 1.914 ± 0.019 kPa
372.22 K, Liquid	2.393 ± 0.022 kPa
377.22 K, Liquid	2.966 ± 0.027 kPa and 2.967 ± 0.027 kPa
382.22 K, Liquid	3.657 ± 0.033 kPa
387.23 K, Liquid	4.475 ± 0.038 kPa and 4.476 ± 0.038 kPa
392.24 K, Liquid	5.45 ± 0.046 kPa
397.27 K, Liquid	6.593 ± 0.055 kPa and 6.596 ± 0.056 kPa
402.37 K, Liquid	7.962 ± 0.067 kPa
407.32 K, Liquid	9.502 ± 0.079 kPa
412.4 K, Liquid	11.33 ± 0.094 kPa
422.55 K, Liquid	15.88 ± 0.13 kPa
432.58 K, Liquid	21.75 ± 0.18 kPa
442.46 K, Liquid	29.18 ± 0.24 kPa
452.37 K, Liquid	38.57 ± 0.32 kPa

CC[N-]C.CC[N-]C.CC[N-]C.CC[N-]C.[Hf+4] [tetrakis(ethylmethylamino)hafnium]
Crystal
Settings	vapor or sublimation pressure [kPa]
312.19 K	0.00296 ± 0.00021
322.2 K	0.00715 ± 0.0003
332.2 K	0.01587 ± 0.00056
342.18 K	0.03287 ± 0.00082
352.19 K	0.0644 ± 0.0013
362.19 K	0.121 ± 0.0026
372.21 K	0.216 ± 0.005
382.21 K	0.37 ± 0.011
392.24 K	0.591 ± 0.028
